Results reported in PubChem BioAssay (NCI).
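Compound exposure: 48 hours, 5 concentrations, 96-well plates. TGI denotes the concentration required for complete inhibition of growth.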

Columns and labels:
Assay in all cases: NCI tumour cell line growth inhibition, 48 h
[1] = system: PC-3 prostate
[2] = system: HCT-15 colon
[3] = system: SF-295 CNS
[4] = system: RXF 393 renal
[5] = system: DU-145 prostate
[6] = system: SK-OV-3 ovarian
[7] = system: SF-539 CNS
[8] = system: K-562 leukemia
[9] = system: RPMI-8226 leukemia
[10] = system: NCI-H522 lung
[11] = system: HCT-116 colon
[12] = system: SR leukemia
[13] = system: NCI-H460 lung
[14] = system: SK-MEL-5 melanoma
[15] = system: MOLT-4 leukemia
[16] = system: SK-MEL-28 melanoma
[17] = system: MDA-N
[18] = system: OVCAR-3 ovarian
[19] = system: U251 CNS
[20] = system: 786-0 renal

Structure (SMILES) | TGI [1] [µM] | TGI [2] [µM] | TGI [3] [µM] | TGI [4] [µM] | TGI [5] [µM] | TGI [6] [µM] | TGI [7] [µM] | TGI [8] [µM] | TGI [9] [µM] | TGI [10] [µM] | TGI [11] [µM] | TGI [12] [µM] | TGI [13] [µM] | TGI [14] [µM] | TGI [15] [µM] | TGI [16] [µM] | TGI [17] [µM] | TGI [18] [µM] | TGI [19] [µM] | TGI [20] [µM]
CCN(CC)C(=S)Nc1ccc(-c2cc3ccc(O)cc3oc2=O)cc1 | > 100 | 67.6 | > 100 | > 100 | > 100 | > 100 | > 100 | > 100 | 95.8 | 43.7 | > 100 | 93.5 | > 100 | 48.8 | > 100 | > 100 | > 100 | 78.3 | 85.1 | > 100
COC(=O)C1=C(OC(=O)/C=C/c2ccccc2)C(C(=O)OC)[C@@]2(O)[C@@H](C(=O)OC)[C@H](C)C[C@@H]1[C@@H]2C(=O)OC (stereo partly specified) | > 100 | 37.6 | 79.9 | 34.1 | > 100 | 70.2 | 52.6 | > 100 | > 100 | 21 | 88.4 | > 100 | 52.7 | 87.9 | > 100 | > 100 | > 100 | 54.1 | 45.6 | 50
Cc1ccc(-n2cc(-c3ccc(Cl)cc3)c3c(N/N=C4\SCC(=O)N4C)ncnc32)cc1 | 10.9 | > 100 | 9.37 | 48.1 | > 100 | 13.8 | 33.9 | > 100 | > 100 | 26.7 | 38.4 | > 100 | 43.2 | 15.5 | > 100 | 6.23 | 63.4 | > 100 | 36.5 | 10.6
O=C(CCCCCCCCC(=O)N1C(=O)CC(=O)N(c2ccccc2)C1=S)N1C(=O)CC(=O)N(c2ccccc2)C1=S | > 100 | > 100 | > 100 | > 100 | > 100 | > 100 | – | – | > 100 | > 100 | > 100 | > 100 | > 100 | > 100 | > 100 | – | > 100 | > 100 | > 100 | > 100
C[n+]1c(-c2ccc(/C=N/Nc3ccnc(N/N=C/c4ccc(-c5cn6ccsc6[n+]5C)cc4)n3)cc2)cn2ccsc21 | 79.9 | > 100 | – | 51.9 | 82 | > 100 | > 100 | 39.7 | > 100 | > 100 | – | > 100 | 91.3 | 54.5 | 64.9 | – | 38.6 | > 100 | > 100 | 46.6
O=C1c2ccccc2C(=O)c2sc(Nc3ccccc3C(F)(F)F)nc21 | 26.1 | > 100 | 32.2 | 39 | 31.7 | 30.8 | 45.8 | 14.8 | 74.4 | > 100 | > 100 | > 100 | 58.1 | 22.7 | 85.1 | 30.3 | 30.8 | 27.5 | 22.4 | 41
CCCCCc1nnc(NS(=O)(=O)c2ccc(NC(=O)OCC(C)C)cc2)s1 | > 100 | > 100 | > 100 | > 100 | > 100 | > 100 | 64.2 | 60.9 | 41.4 | 79 | 53.7 | 36.9 | > 100 | 63.7 | 54 | 95.5 | > 100 | 86.9 | > 100 | > 100
O=[N+]([O-])c1ccc(N/N=C/CC(O)(C(F)(F)F)C(F)(F)F)c([N+](=O)[O-])c1 | > 10 | > 10 | > 10 | > 10 | > 10 | > 10 | > 10 | > 10 | > 10 | > 10 | > 10 | > 10 | 8.35 | > 10 | > 10 | > 10 | > 10 | 8.46 | > 10 | > 10
CCOC(=O)c1sc2nc(SC)nc3c2c1NCN3c1ccc(F)c(F)c1 | > 59.8 | > 100 | 65.9 | 16.7 | > 100 | 43.5 | 11.7 | > 100 | > 100 | > 100 | 54.6 | > 100 | > 100 | > 100 | > 100 | > 100 | > 45.8 | 19.5 | 30.8 | 12.4
O=C(O)C[C@@H]1[C@@H](O)[C@@H](O)CN2C(=O)c3ccccc3[C@H]12 | > 100 | > 100 | > 100 | > 100 | > 100 | > 100 | > 100 | > 100 | > 100 | > 100 | > 100 | > 100 | > 100 | > 100 | > 100 | > 100 | > 100 | – | > 100 | > 100
COc1ccc(NC(=O)CC(=O)n2nc(C)c(N=Nc3cccc(C)c3)c2C)cc1 | > 100 | > 100 | > 100 | > 100 | > 100 | 78.7 | > 100 | – | > 100 | > 100 | > 100 | > 100 | > 100 | > 100 | > 100 | > 100 | > 100 | > 100 | > 100 | > 100
CCCCCCNC(=O)CCC(NC(=O)c1ccc(N(C)Cc2cnc3nc(N)nc(N)c3n2)cc1)C(=O)NCCCCCC (stereo unspecified) | > 100 | > 100 | 30.3 | > 100 | > 100 | 37.2 | – | > 100 | > 100 | > 100 | > 100 | > 100 | > 100 | > 100 | > 100 | > 100 | > 100 | > 100 | > 100 | > 100
